From PMC8256334, “Simultaneous Determination of a Novel PD-L1 Inhibitor, IMMH-010, and Its Active Metabolite, YPD-29B, in Rat Biological Matrices by Polarity-Switching Liquid Chromatography-Tandem Mass Spectrometry: Application to ADME Studies” (Frontiers in Pharmacology, 2021)
Where “and” joins values, the source holds several entries; their conditions need not be identical. Identical values can stand only once. Like-named read-outs stand apart in the source and are kept apart here.

Key:
[1] = PK study in rats after single i.g. administration of IMMH-010 maleate; type: in vivo, Sprague-Dawley rats; conditions: for AUC(0-t) / Cmax / MRT last / Tmax / AUC(0-inf) / MRT inf / half-life: female, Sprague-Dawley, po; for AUC(0-t) / Cmax / MRT last / Tmax / AUC(0-inf) / MRT inf / half-life / dose dependence of AUC: rat plasma; for MRT last: read-out: MRT(0-t); for Tmax: median (range); for MRT inf: read-out: MRT(0-∞); for half-life: rat, plasma; for dose dependence of AUC: dose range 10–100 mg/kg IMMH-010 maleate, oral
From the text: (§1) Female Sprague-Dawley rats (200 ± 20 g, Vital River, Beijing, China) were kept in standard environmental conditions. Rats were fasted overnight with free access to water and randomly assigned to different groups before the experiments. All animal protocols were approved by the Institute Animal Care and Welfare Committee of the Institute of Materia Medica, Chinese Academy of Medical Sciences and Peking Union Medical College.
IMMH-010 maleate was suspended in 0.5% sodium carboxymethyl cellulose. The rats were intragastrically (i.g.) administered IMMH-010 maleate at doses of 10, 30, and 100 mg/kg. Blood samples were withdrawn via the orbital plexus into heparinized tubes with NaF at 5, 15, and 30 min and 1, 2, 4, 6, 8, 12, 24, 36, and 48 h. Plasma was immediately prepared by centrifugation at 5,000 rpm for 10 min. All samples were stored at −20°C prior to analysis. The PK parameters of IMMH-010 and YPD-29B were calculated using the Linear Trapezoidal with Linear Interpolation method by WinNonlin software version 6.3 based on a noncompartmental model (Pharsight Corporation, Mountain View, United States ).

Stability in rat plasma = type: in vitro ADME; conditions: for Accuracy (RE, %) / Measured conc.: n = 5; for stability during the sample preparation, storage and analysis: rat plasma: 4°C 4 h, −20°C 3 months, three freeze-thaw cycles, autosampler 10°C 48 h
Protocol: Plasma: IMMH-010 is an ester-containing compound. […] Therefore, heparin sodium and NaF were dissolved with 0.9% w/v sodium chloride to prepare a mixture of 0.5% heparin sodium and 500 mM NaF. All blood was withdrawn into EP tubes containing this mixture (1:9 v/v mixture:blood) followed by plasma separation. The plasma standards for IMMH-010 were prepared at 1, 2, 5, 10, 20, 80, 120 and 200 ng/ml, and those for YPD-29B were prepared at 2.5, 5, 10, 20, 50, 400, 600 and 1,000 ng/ml. QC samples were prepared at 1, 2, 40 and 160 ng/ml for IMMH-010 and 2.5, 5, 200 and 800 ng/ml for YPD-29B.
For short-term and long-term stability, plasma samples were kept at 4°C for 4 h and −20°C for 3 months, respectively. To evaluate freeze-thaw stability, samples were frozen at −20°C for 24 h and thawed at 4°C for three cycles. […] Stability assays of IMMH-010 and YPD-29B were performed at two QC levels (high and low QC) (n = 5).

[2] = Excretion study in rats (urine and feces); type: in vivo, Sprague-Dawley rats; conditions: for excretion in feces, % Of administered dose / excretion in urine, % Of administered dose: i.g. IMMH-010 maleate 10 mg/kg, n = 5; for share of the dose recovered in the urine and feces as this analyte: urine and feces within 72 h, rats, oral IMMH-010 maleate
Protocol: as §1
After i. g. administration of IMMH-010 maleate (10 mg/kg), rats were housed in separate metabolite cages to collect their urine and feces: 0–12, 12–24, 24–36, 36–48, and 48–72 h for urine and 0–24, 24–48, and 48–72 h for feces. Fecal samples were dried in air. Urine samples were stored at −20°C prior to analysis.

[3] = single i.g. IMMH-010 maleate 10 mg/kg, mean ± SD, n = 5
[4] = single i.g. IMMH-010 maleate 10 mg/kg, n = 5
[5] = single i.g. IMMH-010 maleate 30 mg/kg, mean ± SD, n = 5
[6] = single i.g. IMMH-010 maleate 30 mg/kg, n = 5
[7] = single i.g. IMMH-010 maleate 100 mg/kg, mean ± SD, n = 5
[8] = single i.g. IMMH-010 maleate 100 mg/kg, n = 5
[9] = 30 mg/kg, single i.g. IMMH-010 maleate 30 mg/kg, mean ± SD, n = 5, read-out: t1/2β (converted)
[10] = 100 mg/kg, single i.g. IMMH-010 maleate 100 mg/kg, mean ± SD, n = 5, read-out: t1/2β (converted)
[11] = prepared rat plasma samples, at 15°C in auto-sampler (24 h), spiked 2 ng/ml IMMH-010, 5 ng/ml YPD-29B
[12] = prepared rat plasma samples, at 15°C in auto-sampler (24 h), spiked 160 ng/ml IMMH-010, 800 ng/ml YPD-29B
[13] = prepared rat plasma samples, at 15°C in auto-sampler (48 h), spiked 2 ng/ml IMMH-010, 5 ng/ml YPD-29B
[14] = prepared rat plasma samples, at 15°C in auto-sampler (48 h), spiked 160 ng/ml IMMH-010, 800 ng/ml YPD-29B
[15] = rat plasma, 4°C (4 h), spiked 2 ng/ml IMMH-010, 5 ng/ml YPD-29B
[16] = rat plasma, 4°C (4 h), spiked 160 ng/ml IMMH-010, 800 ng/ml YPD-29B
[17] = rat plasma, stored at −20°C (3 months), spiked 2 ng/ml IMMH-010, 5 ng/ml YPD-29B
[18] = rat plasma, stored at −20°C (3 months), spiked 160 ng/ml IMMH-010, 800 ng/ml YPD-29B
[19] = rat plasma, three freeze–thaw cycles, spiked 2 ng/ml IMMH-010, 5 ng/ml YPD-29B
[20] = rat plasma, three freeze–thaw cycles, spiked 160 ng/ml IMMH-010, 800 ng/ml YPD-29B

CC(C)OC(=O)C(CO)NCc1cc(Cl)c(OCc2cccc(-c3ccccc3)c2Br)cc1OCc1cccnc1 (stereo not drawn) [IMMH-010, 2-[4-(2-bromo-biphenyl-3-ylmethoxy)-5-chloro-2-(pyridin-3-ylmethoxy)-benzylamino]-3-hydroxy-propionic acid isopropyl ester]
AUC(0-t) [1, 3]: 8.5 ± 3.67 ng·h/mL | Cmax [1, 3]: 8.45 ± 3.27 ng/mL | MRT last [1, 3]: 0.8 ± 0.13 h | Tmax [1, 4]: 0.5 h | AUC(0-inf) [1, 5]: 44.1 ± 20.6 ng·h/mL | AUC(0-t) [1, 5]: 37.5 ± 13.5 ng·h/mL | Cmax [1, 5]: 28.4 ± 13 ng/mL | MRT last [1, 5]: 1.09 ± 0.21 h | MRT inf [1, 5]: 1.49 ± 0.3 h | Tmax [1, 6]: 0.5 h | AUC(0-inf) [1, 7]: 134 ± 45.7 ng·h/mL | AUC(0-t) [1, 7]: 129 ± 45.6 ng·h/mL | Cmax [1, 7]: 71.4 ± 34 ng/mL | MRT last [1, 7]: 1.82 ± 0.53 h | MRT inf [1, 7]: 2.11 ± 0.69 h | Tmax [1, 8]: 0.5 h | half-life [1, 9]: 0.98 ± 0.28 h | half-life [1, 10]: 1.63 ± 0.49 h | dose dependence of AUC [1]: proportional to the dose | stability in rat plasma with esterase inhibitor (Stability in rat plasma; 4°C, rat plasma containing 50 mM NaF, preliminary results): stable | Accuracy (RE, %) (Stability in rat plasma; [11]): −6.0% | Measured conc. (Stability in rat plasma; [11]): 1.88 ± 0.21 ng/mL | Accuracy (RE, %) (Stability in rat plasma; [12]): −7.5% | Measured conc. (Stability in rat plasma; [12]): 148 ± 4 ng/mL | Accuracy (RE, %) (Stability in rat plasma; [13]): 2.0% | Measured conc. (Stability in rat plasma; [13]): 2.04 ± 0.07 ng/mL | Accuracy (RE, %) (Stability in rat plasma; [14]): −3.8% | Measured conc. (Stability in rat plasma; [14]): 154 ± 4 ng/mL | stability during the sample preparation, storage and analysis (Stability in rat plasma): stable | Accuracy (RE, %) (Stability in rat plasma; [15]): 2.5% | Measured conc. (Stability in rat plasma; [15]): 2.05 ± 0.10 ng/mL | Accuracy (RE, %) (Stability in rat plasma; [16]): 8.1% | Measured conc. (Stability in rat plasma; [16]): 173 ± 20 ng/mL | Accuracy (RE, %) (Stability in rat plasma; [17]): 12.0% | Measured conc. (Stability in rat plasma; [17]): 2.24 ± 0.10 ng/mL | Accuracy (RE, %) (Stability in rat plasma; [18]): 3.8% | Measured conc. (Stability in rat plasma; [18]): 166 ± 4 ng/mL | Accuracy (RE, %) (Stability in rat plasma; [19]): 5.5% | Measured conc. (Stability in rat plasma; [19]): 2.11 ± 0.22 ng/mL | Accuracy (RE, %) (Stability in rat plasma; [20]): −1.9% | Measured conc. (Stability in rat plasma; [20]): 157 ± 4 ng/mL | excretion in feces, % Of administered dose ([2]; time 24 h): 6.97 ± 5.69 % Of administered dose | excretion in feces, % Of administered dose ([2]; time 48 h): 7.99 ± 5.66 % Of administered dose | excretion in feces, % Of administered dose ([2]; time 72 h): 7.99 % Of administered dose and 7.99 ± 5.66 % Of administered dose | share of the dose recovered in the urine and feces as this analyte [2]: 7.99%

O=C(O)[C@H](CO)NCc1cc(Cl)c(OCc2cccc(-c3ccccc3)c2Br)cc1OCc1cccnc1 [YPD-29B]
AUC(0-inf) [1, 3]: 110 ± 46.6 ng·h/mL | AUC(0-t) [1, 3]: 94.3 ± 46.3 ng·h/mL | Cmax [1, 3]: 63.7 ± 29.1 ng/mL | MRT last [1, 3]: 1.5 ± 0.4 h | MRT inf [1, 3]: 2.27 ± 0.96 h | Tmax [1, 4]: 0.5 h | AUC(0-inf) [1, 5]: 521 ± 114 ng·h/mL | AUC(0-t) [1, 5]: 503 ± 110 ng·h/mL | Cmax [1, 5]: 268 ± 43 ng/mL | MRT last [1, 5]: 1.55 ± 0.14 h | MRT inf [1, 5]: 2.06 ± 0.55 h | Tmax [1, 6]: 0.5 h | AUC(0-inf) [1, 7]: 1640 ng·h/mL | AUC(0-t) [1, 7]: 1620 ng·h/mL | Cmax [1, 7]: 569 ± 72 ng/mL | MRT last [1, 7]: 2.88 ± 0.89 h | MRT inf [1, 7]: 3.12 ± 0.87 h | Tmax [1, 8]: 1 h | half-life ([1]; 10 mg/kg, single i.g. IMMH-010 maleate 10 mg/kg, mean ± SD, n = 5, read-out: t1/2β (converted)): 1.57 ± 1.08 h | half-life [1, 9]: 3.65 ± 2.77 h | half-life ([1]; 100 mg/kg, i.g. IMMH-010 maleate 10, 30 and 100 mg/kg, range over doses, read-out: average plasma elimination half-life (t1/2β)): 1.57 to 3.65 h | half-life [1, 10]: 3.1 ± 1.76 h | dose dependence of AUC [1]: proportional to the dose | time postdose at which the metabolite could be detected in plasma ([1]; rats, after oral administration of IMMH-010 maleate): 5 min | Accuracy (RE, %) (Stability in rat plasma; [11]): −1.6% | Measured conc. (Stability in rat plasma; [11]): 4.92 ± 0.25 ng/mL | Accuracy (RE, %) (Stability in rat plasma; [12]): 5.6% | Measured conc. (Stability in rat plasma; [12]): 845 ± 13 ng/mL | Accuracy (RE, %) (Stability in rat plasma; [13]): −12.2% | Measured conc. (Stability in rat plasma; [13]): 4.39 ± 0.19 ng/mL | Accuracy (RE, %) (Stability in rat plasma; [14]): −1.1% | Measured conc. (Stability in rat plasma; [14]): 791 ± 17 ng/mL | stability during the sample preparation, storage and analysis (Stability in rat plasma): stable | Accuracy (RE, %) (Stability in rat plasma; [15]): −4.8% | Measured conc. (Stability in rat plasma; [15]): 4.76 ± 0.12 ng/mL | Accuracy (RE, %) (Stability in rat plasma; [16]): 4.0% | Measured conc. (Stability in rat plasma; [16]): 832 ± 8 ng/mL | Accuracy (RE, %) (Stability in rat plasma; [17]): −2.6% | Measured conc. (Stability in rat plasma; [17]): 4.87 ± 0.50 ng/mL | Accuracy (RE, %) (Stability in rat plasma; [18]): −6.5% | Measured conc. (Stability in rat plasma; [18]): 748 ± 3 ng/mL | Accuracy (RE, %) (Stability in rat plasma; [19]): −6.2% | Measured conc. (Stability in rat plasma; [19]): 4.69 ± 0.21 ng/mL | Accuracy (RE, %) (Stability in rat plasma; [20]): 3.9% | Measured conc. (Stability in rat plasma; [20]): 831 ± 51 ng/mL | excretion in feces, % Of administered dose ([2]; time 24 h): 14.56 ± 8.45 % Of administered dose | excretion in feces, % Of administered dose ([2]; time 48 h): 19.42 ± 6.85 % Of administered dose | excretion in feces, % Of administered dose ([2]; time 72 h): 19.65 % Of administered dose and 19.65 ± 6.76 % Of administered dose | share of the dose recovered in the urine and feces as this analyte [2]: 20.82% | excretion in urine, % Of administered dose ([2]; time 12 h): 0.52 ± 0.15 % Of administered dose | excretion in urine, % Of administered dose ([2]; time 24 h): 0.63 ± 0.15 % Of administered dose | excretion in urine, % Of administered dose ([2]; time 36 h): 0.71 ± 0.17 % Of administered dose | excretion in urine, % Of administered dose ([2]; time 48 h): 0.85 ± 0.36 % Of administered dose | excretion in urine, % Of administered dose ([2]; time 72 h): 1.17 % Of administered dose and 1.17 ± 0.91 % Of administered dose
